The values that follow are results of earlier work, collected in patent US20070293552A1, “ANTIHYPERTENSIVE THERAPY METHOD” (priority 2006, published 2007).

The series has as its target T1, ETA (Homo sapiens, UniProt P25101).
T1 sequence (P25101 21-427): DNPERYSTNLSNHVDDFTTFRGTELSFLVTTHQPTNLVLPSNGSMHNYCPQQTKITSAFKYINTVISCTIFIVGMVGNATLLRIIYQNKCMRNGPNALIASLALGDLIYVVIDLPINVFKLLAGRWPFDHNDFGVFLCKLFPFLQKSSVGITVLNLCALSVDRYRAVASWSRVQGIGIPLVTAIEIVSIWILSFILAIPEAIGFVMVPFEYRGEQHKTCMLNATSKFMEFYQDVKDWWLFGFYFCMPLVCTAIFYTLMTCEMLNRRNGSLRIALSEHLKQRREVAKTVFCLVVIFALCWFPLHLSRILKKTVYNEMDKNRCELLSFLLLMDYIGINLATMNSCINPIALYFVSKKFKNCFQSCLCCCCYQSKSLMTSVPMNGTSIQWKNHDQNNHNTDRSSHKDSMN
The conditions noted are these: selectivity for ETA over ETB; reported by Wu et al. (2004) J. Med. Chem. 47, 1969-1986.

As for `CC(=O)c1cc(C)cc(C)c1NC(=O)c1sccc1S(=O)(=O)Nc1onc(C)c1C` [TBC3711, N-(2-acetyl-4,6-dimethylphenyl)-3-(3,4-dimethylisoxazol-5-ylsulfamoyl)-thiophene-2-carboxamide], the ETA/ETB selectivity factor is reported as 441×10^3.
